Patent publication US20260184726A1, “HETEROCYCLIC COMPOUNDS AS KINASE INHIBITORS, COMPOSITIONS, AND METHODS OF USE THEREOF” (JS INNOMED HOLDINGS LTD., priority 2022, published 2026)
Like-named read-outs stand apart in the source and are kept apart here.

Experiments:
human RET kinase = target: T1, human RET kinase (Homo sapiens, UniProt P07949); assay: RET Kinase Assay (mobility shift assay, ATP at Km); type: biochemical; settings: 23 μM ATP (Km), read-out: RET Enzymatic Activity
T1 construct: purchased Carna 08-159
T1 sequence (P07949 29-1114): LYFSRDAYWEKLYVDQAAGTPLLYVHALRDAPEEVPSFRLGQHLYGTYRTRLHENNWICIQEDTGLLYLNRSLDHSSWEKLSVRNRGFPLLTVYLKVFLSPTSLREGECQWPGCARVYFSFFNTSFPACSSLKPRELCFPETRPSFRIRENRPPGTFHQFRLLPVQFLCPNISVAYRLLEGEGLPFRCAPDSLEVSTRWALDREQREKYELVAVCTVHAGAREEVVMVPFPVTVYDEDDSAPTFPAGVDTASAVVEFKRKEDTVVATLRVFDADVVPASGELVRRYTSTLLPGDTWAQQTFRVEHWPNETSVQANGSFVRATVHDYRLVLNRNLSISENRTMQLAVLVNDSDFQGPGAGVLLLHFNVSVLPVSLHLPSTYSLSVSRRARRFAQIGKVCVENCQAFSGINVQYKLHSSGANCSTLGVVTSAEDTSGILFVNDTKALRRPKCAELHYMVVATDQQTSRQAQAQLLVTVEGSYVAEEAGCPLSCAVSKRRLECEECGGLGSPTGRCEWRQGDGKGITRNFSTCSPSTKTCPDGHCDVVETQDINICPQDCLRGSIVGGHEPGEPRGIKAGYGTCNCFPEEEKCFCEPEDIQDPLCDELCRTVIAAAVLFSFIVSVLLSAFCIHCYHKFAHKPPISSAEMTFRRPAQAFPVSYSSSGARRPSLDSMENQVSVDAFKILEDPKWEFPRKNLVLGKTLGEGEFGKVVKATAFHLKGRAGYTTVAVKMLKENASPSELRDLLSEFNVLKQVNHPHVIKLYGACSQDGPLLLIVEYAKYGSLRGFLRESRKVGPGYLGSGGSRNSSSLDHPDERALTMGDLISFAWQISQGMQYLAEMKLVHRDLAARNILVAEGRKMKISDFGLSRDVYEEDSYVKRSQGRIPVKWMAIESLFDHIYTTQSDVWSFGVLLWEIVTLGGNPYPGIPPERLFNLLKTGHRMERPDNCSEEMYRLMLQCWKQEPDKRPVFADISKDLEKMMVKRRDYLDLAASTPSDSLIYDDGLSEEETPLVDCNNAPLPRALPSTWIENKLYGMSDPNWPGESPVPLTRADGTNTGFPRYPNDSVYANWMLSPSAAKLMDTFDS
Method: Compounds were tested by Mobility shift assay with ATP concentration at Km. The assay used human RET kinase (Carna 08-159). Test compounds were prepared and diluted in DMSO in 3-fold serial dilutions to 50× of the final testing concentrations. The compounds were then further diluted to 5× by the kinase reaction buffer (50 mM HEPES pH 7.5, 0.0015% Brij-35). The enzymatic reaction for compound testing was performed in a white 384-well polypropylene plate (Corning 3573) with a total reaction volume of 25 μl containing 7 nM RET, 3 μM peptide substrate FAM-P2 (GL Biochem 112394), and 23 μM ATP (Sigma A7699-1G). The assay started with loading RET diluted in kinase reaction buffer to wells, followed by addition of equal volume of 5× compounds for 15-min incubation at the room temperature for pre-treatment. The enzymatic reaction was initiated by addition of mixture of the substrate and ATP prepared in kinase reaction buffer. After incubation at 28° C. for one hour, 25 μl of stopper buffer (a mixture of 100 mM HEPES pH 7.5 buffer, 0.015% Brij-35, 50 mM EDTA and 0.2% of coating reagent 3 (Cliper Lifesciences)). After 30 minutes of incubation at room temperature, the plate was read in a Caliper. Percent of control was calculated as the percentage of compound-treated vs 2% DMSO vehicle-treated. The dose-response curves were generated and the IC50 values were calculated by nonlinear sigmoid curve fitting using XLFit.

human Aurora B kinase = target: T2, human Aurora B kinase (Homo sapiens, UniProt Q96GD4); assay: Aurora B Kinase Assay (mobility shift assay, ATP at Km); type: biochemical; settings: 15 μM ATP (Km), read-out: AurB Enzymatic Activity
T2 construct: purchased Carna 05-102
T2 sequence (Q96GD4 whole entry): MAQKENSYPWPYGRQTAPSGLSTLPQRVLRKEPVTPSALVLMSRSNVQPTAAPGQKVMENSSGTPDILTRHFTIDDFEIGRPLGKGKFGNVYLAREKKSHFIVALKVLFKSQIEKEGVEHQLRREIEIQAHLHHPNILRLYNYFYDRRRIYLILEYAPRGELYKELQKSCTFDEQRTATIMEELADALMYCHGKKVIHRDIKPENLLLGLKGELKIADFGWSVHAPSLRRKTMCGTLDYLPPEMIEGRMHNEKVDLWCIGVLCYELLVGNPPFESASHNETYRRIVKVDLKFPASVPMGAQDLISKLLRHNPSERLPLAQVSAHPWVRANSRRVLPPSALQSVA
T2 sequence (Q9NQS7 803-918 partner limits assumed): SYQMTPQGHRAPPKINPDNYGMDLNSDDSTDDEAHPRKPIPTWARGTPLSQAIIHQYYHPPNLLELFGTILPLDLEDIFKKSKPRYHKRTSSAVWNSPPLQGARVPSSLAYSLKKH
Method: Compounds were tested by Mobility shift assay with ATP concentration at Km. The assay used human Aurora B kinase (Carna 05-102). Test compounds were prepared and diluted in DMSO in 3-fold serial dilutions to 50× of the final testing concentrations. The compounds were then further diluted to 5× by the kinase reaction buffer (50 mM HEPES pH 7.5, 0.0015% Brij-35). The enzymatic reaction for compound testing was performed in a white 384-well polypropylene plate (Corning 3573) with a total reaction volume of 25 μl containing 9 nM Aurora B, 3 μM peptide substrate FAM-P21 (GL Biochem 116370), and 15 μM ATP (Sigma A7699-1G). The assay started with loading Aurora B diluted in kinase reaction buffer to wells, followed by addition of equal volume of 5× compounds for 15-min incubation at the room temperature for pre-treatment. The enzymatic reaction was initiated by addition of mixture of the substrate and ATP prepared in kinase reaction buffer. After incubation at 28° C. for one hour, 25 μl of stopper buffer (a mixture of 100 mM HEPES pH 7.5 buffer, 0.015% Brij-35, 50 mM EDTA and 0.2% of coating reagent 3 (Cliper Lifesciences)). After 30 minutes of incubation at room temperature, the plate was read in a Caliper. Percent of control was calculated as the percentage of compound-treated vs 2% DMSO vehicle-treated. The dose-response curves were generated and the IC50 values were calculated by nonlinear sigmoid curve fitting using XLFit.

BAF3 cells = assay: BAF3 Cell Proliferation Assay (CellTiter-Glo, without RET driven, IL-3); type: cell-based; settings: Mus musculus; growth inhibition in BAF3 cells, 72 hours, with IL-3; read-out: BAF3 Cellular Activity
Method: Compounds disclosed herein were tested for the inhibition BAF3 cells proliferation without RET driven by CellTiter-Glo assay. In this assay, a complete media was prepared by adding 10% fetal bovine serum and 1 ng/ml IL-3 to RPMI-1640 medium (Life technology) for BAF3 cells. BAF3 cells were added to each of 88 wells of a 96 well plate at a seeding density of 2,000 cells/well/95 μL. The cells were allowed to attach to the plate by incubating at 37° C. for 24 hours. The compound was dissolved in DMSO (SIGMA). A solution of test compound was prepared in complete media by serial dilution to obtain the following concentrations: 200 μM, 66.7 μM, 22.2 μM, 7.4 μM, 2.5 μM, 0.82 μM, 0.27 μM, 0.091 μM and […]. The test compound solution (5 μL) was added to each of 80 cell-containing wells. The final concentrations of the compound were following: 10 μM, 3.33 μM, 1.11 μM, 0.37 μM, 0.12 μM, 0.041 μM, 0.014 μM, 0.0046 μM and 0.0015 μM. The final concentration of DMSO is 0.1%. To the 8 remaining cell-containing wells, only complete media (containing 0.1% DMSO) was added to form a control group in order to measure maximal proliferation. To the remaining 8 empty wells, complete media was added to for a vehicle control group in order to measure background. The plates were incubated at 37° C. for 72 hours. 50 μl of CellTiter-Glo® Reagent was added to each well. The contents were mixed for 2 minutes on an orbital shaker to induce cell lysis, and then were incubated at room temperature for 10 minutes to stabilize luminescent signal. Luminescence was recorded on Paradigm. Cell viability (CV %) was calculated relative to vehicle (DMSO) treated control wells. The IC50 was calculated using GraphPad Prism.

BAF3-KIF5B-RET cells = target: T3, BAF3-KIF5B-RET cells (Homo sapiens, UniProt P07949); assay: BAF3-KIF5B-RET Cell Proliferation Assay (CellTiter-Glo); type: cell-based; settings: growth inhibition, 72 hours
T3 construct: fused on or other part: P33176 (Kinesin-1 heavy chain)
T3 sequence (P07949 whole entry, change not shown, the tested form may be a part): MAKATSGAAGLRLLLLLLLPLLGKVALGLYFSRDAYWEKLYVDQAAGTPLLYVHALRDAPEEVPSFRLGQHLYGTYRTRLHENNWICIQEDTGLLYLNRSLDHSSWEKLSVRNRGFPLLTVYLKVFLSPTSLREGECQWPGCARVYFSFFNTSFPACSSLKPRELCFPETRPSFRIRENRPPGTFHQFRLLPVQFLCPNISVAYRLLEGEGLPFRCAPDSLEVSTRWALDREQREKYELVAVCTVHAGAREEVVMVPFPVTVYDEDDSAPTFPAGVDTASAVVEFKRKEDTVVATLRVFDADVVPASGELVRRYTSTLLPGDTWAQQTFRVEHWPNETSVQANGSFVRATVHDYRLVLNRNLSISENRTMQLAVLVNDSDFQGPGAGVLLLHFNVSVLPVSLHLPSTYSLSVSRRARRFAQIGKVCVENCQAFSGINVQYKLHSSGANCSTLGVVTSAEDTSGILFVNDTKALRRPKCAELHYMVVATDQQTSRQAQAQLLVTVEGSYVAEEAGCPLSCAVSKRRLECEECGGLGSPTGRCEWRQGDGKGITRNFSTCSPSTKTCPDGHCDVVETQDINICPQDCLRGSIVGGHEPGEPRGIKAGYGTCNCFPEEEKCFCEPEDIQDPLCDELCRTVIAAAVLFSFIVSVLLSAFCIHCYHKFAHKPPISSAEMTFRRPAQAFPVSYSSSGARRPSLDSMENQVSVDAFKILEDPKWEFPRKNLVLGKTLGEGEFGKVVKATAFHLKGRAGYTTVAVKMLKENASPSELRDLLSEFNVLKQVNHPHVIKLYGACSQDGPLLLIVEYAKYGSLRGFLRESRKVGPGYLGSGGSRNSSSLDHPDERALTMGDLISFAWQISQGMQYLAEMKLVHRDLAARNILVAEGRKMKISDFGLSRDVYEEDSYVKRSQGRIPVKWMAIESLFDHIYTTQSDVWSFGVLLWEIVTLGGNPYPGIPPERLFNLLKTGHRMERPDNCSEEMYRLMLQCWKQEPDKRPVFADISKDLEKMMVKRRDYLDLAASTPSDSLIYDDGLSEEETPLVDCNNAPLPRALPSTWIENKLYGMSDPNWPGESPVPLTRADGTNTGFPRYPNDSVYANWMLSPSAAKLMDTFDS
Method: (§1) Compounds disclosed herein were tested for the inhibition of RET by a cancer cell proliferation assay commonly known as CellTiter-Glo assay. In this assay, a complete media was prepared by adding 10% fetal bovine serum to RPMI-1640 medium (Life technology) for RET-driven cancer cells (BAF3-FIF5B-RET, Ba/F3-KIF5B-RET-G810R, Ba/F3-TEL-RET-M918T or Ba/F3-KIF5B-RET-V804M). Individual RET-driven type of cells were added to each of 88 wells of a 96 well plate at a seeding density of 2,000 cells/well/95 μL. The cells were allowed to attach to the plate by incubating at 37° C. for 24 hours. The compound was dissolved in DMSO (SIGMA). A solution of test compound was prepared in complete media by serial dilution to obtain the following concentrations: 20 μM, 6.67 μM, 2.22 μM, 0.74 μM, 0.25 μM, 0.082 μM, 0.027 μM, 0.0091 μM and 0.0030 μM. The test compound solution (5 μL) was added to each of 80 cell-containing wells. The final concentrations of the compound were following: 1 μM, 0.33 μM, 0.11 μM, 0.037 μM, 0.012 μM, 0.0041 μM, 0.0014 μM, 0.00046 μM and 0.00015 μM. The final concentration of DMSO is 0.1%. To the 8 remaining cell-containing wells, only complete media (containing 0.1% DMSO) was added to form a control group in order to measure maximal proliferation. To the remaining 8 empty wells, complete media was added to for a vehicle control group in order to measure background. The plates were incubated at 37° C. for 72 hours. 50 μl of CellTiter-Glo® Reagent was added to each well. Mix contents for 2 minutes on an orbital shaker to induce cell lysis. Incubate at room temperature for 10 minutes to stabilize luminescent signal. Record luminescence on Paradigm. Cell viability (CV %) was calculated relative to vehicle (DMSO) treated control wells. The IC50 was calculated using GraphPad Prism.

[1] = target: T4, Ba/F3-KIF5B-RET-V804M cells (Homo sapiens, UniProt P07949, V804M, cells depend on it); assay: Ba/F3-KIF5B-RET-V804M Cell Proliferation Assay (CellTiter-Glo); type: cell-based; settings: growth inhibition, 72 hours; Table 3; read-out: BZ/F3-KIF5B-RET V804M
T4 construct: fused on or other part: P33176 (Kinesin-1 heavy chain)
T4 sequence (P07949 whole entry V804M, the tested form may be a part): as the sequence (P07949 whole entry, change not shown, the tested form may be a part) above, with V804M counted along it
Method: as §1

[2] = target: T5, Ba/F3-KIF5B-RET-G810R cells (Homo sapiens, UniProt P07949, G810R, cells depend on it); assay: Ba/F3-KIF5B-RET-G810R Cell Proliferation Assay (CellTiter-Glo); type: cell-based; settings: growth inhibition, 72 hours; Table 3
T5 construct: fused on or other part: P33176 (Kinesin-1 heavy chain)
T5 sequence (P07949 whole entry G810R, the tested form may be a part): as the sequence (P07949 whole entry, change not shown, the tested form may be a part) above, with G810R counted along it
Method: as §1

[3] = target: BA/F3-KIF5B-RET M918T cells (Homo sapiens, UniProt P07949, M918T, cells depend on it, form not given); assay: Ba/F3 RET-M918T Cell Proliferation Assay (CellTiter-Glo); type: cell-based; settings: growth inhibition, 72 hours; Table 3
BA/F3-KIF5B-RET M918T cells, sequence (P07949 whole entry M918T, form open): as the sequence (P07949 whole entry, change not shown, the tested form may be a part) above, with M918T counted along it
Method: as §1

human KDR kinase = target: T6, human KDR kinase (Homo sapiens, UniProt P35968); assay: KDR Kinase Assay (mobility shift assay, ATP at Km); type: biochemical; settings: 92 μM ATP (Km), read-out: KDR Enzymatic Activity
T6 construct: purchased Carna 08-191
T6 sequence (P35968 20-1356): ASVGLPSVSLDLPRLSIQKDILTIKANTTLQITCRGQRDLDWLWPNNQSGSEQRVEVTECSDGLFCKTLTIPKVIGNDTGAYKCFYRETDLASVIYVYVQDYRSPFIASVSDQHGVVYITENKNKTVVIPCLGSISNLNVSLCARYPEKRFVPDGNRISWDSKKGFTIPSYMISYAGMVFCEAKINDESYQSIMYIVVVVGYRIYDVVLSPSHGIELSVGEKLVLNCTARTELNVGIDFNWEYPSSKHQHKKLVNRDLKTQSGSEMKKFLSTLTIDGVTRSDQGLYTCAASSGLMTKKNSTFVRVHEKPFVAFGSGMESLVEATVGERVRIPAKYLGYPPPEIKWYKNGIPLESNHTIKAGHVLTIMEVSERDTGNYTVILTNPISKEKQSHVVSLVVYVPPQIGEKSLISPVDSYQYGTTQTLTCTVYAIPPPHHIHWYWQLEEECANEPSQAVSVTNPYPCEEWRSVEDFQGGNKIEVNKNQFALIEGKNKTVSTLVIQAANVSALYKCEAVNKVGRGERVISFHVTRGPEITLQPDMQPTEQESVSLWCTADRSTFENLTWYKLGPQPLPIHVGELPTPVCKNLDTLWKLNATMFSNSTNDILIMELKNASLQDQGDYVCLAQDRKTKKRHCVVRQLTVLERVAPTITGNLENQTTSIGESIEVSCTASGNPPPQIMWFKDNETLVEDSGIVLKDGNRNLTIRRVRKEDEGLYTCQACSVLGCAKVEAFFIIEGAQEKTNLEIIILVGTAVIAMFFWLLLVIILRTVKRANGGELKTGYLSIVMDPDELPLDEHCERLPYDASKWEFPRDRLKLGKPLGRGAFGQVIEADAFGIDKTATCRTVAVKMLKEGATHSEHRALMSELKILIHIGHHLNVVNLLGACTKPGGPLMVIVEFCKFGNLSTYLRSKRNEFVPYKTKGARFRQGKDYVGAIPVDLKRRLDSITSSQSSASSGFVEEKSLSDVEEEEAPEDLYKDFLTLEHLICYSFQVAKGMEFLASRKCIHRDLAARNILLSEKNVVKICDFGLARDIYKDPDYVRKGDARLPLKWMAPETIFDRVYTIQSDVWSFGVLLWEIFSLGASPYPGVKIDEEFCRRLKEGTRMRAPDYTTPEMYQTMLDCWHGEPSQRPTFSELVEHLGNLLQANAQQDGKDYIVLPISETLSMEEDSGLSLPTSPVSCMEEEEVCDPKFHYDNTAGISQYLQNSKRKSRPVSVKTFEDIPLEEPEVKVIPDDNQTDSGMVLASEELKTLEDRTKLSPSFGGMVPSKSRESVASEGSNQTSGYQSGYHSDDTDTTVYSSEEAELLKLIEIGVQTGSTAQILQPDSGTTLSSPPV
Method: Compounds were tested by Mobility shift assay with ATP concentration at Km. The assay used human KDR kinase (Carna 08-191). Test compounds were prepared and diluted in DMSO in 3-fold serial dilutions to 50× of the final testing concentrations. The compounds were then further diluted to 5× by the kinase reaction buffer (50 mM HEPES pH 7.5, 0.0015% Brij-35). The enzymatic reaction for compound testing was performed in a white 384-well polypropylene plate (Corning 3573) with a total reaction volume of 25 μl containing 1.2 nM KDR, 3 μM peptide substrate FAM-P22 (GL Biochem 112393), and 92 μM ATP (Sigma A7699-1G). The assay started with loading RET diluted in kinase reaction buffer to wells, followed by addition of equal volume of 5× compounds for 15-min incubation at the room temperature for pre-treatment. The enzymatic reaction was initiated by addition of mixture of the substrate and ATP prepared in kinase reaction buffer. After incubation at 28° C. for one hour, 25 μl of stopper buffer (a mixture of 100 mM HEPES pH 7.5 buffer, 0.015% Brij-35, 50 mM EDTA and 0.2% of coating reagent 3 (Cliper Lifesciences)). After 30 minutes of incubation at room temperature, the plate was read in a Caliper. Percent of control was calculated as the percentage of compound-treated vs 2% DMSO vehicle-treated. The dose-response curves were generated and the IC50s were calculated by nonlinear sigmoid curve fitting using XLFit.

[4] = Table 2, read-out: BA/F3-KIF5B-RET Cellular activity
[5] = Table 3, read-out: BA/F3-KIF5B-RET

Row | SMILES | IC50 (human RET kinase) | IC50 (human Aurora B kinase) | IC50 (BAF3 cells) | GI50 (BAF3-KIF5B-RET cells; [4]) | GI50 (BAF3-KIF5B-RET cells; [5]) | GI50 [1] | GI50 [2] | GI50 [3] | IC50 (human KDR kinase)
1 | COc1ccc(CN2C3CC2CN(c2ccc(-c4cc(-c5ccc(C(C)(C)O)cn5)cn5ncc(C#N)c45)cn2)C3)cn1 [Example 9, 6-(5-(2-hydroxypropan-2-yl)pyridin-2-yl)-4-(6-(6-((6-methoxypyridin-3-yl)methyl)-3,6-diazabicyclo[3.1.1]heptan-3-yl)pyridin-3-yl)pyrazolo[1,5-a]pyridine-3-carbonitrile] | 0.00058 µM | 0.08 µM | 1.13 µM | 0.0006 µM | 0.0006 µM | 0.0048 µM | 0.0546 µM | 0.0132 µM | 
2 | COc1ccc(CN2C3CC2CN(c2ccc(-c4cc(-c5cnc(C(C)(C)O)nc5)cn5ncc(C#N)c45)cn2)C3)cn1 [Example 10, 6-(2-(2-hydroxypropan-2-yl)pyrimidin-5-yl)-4-(6-(6-((6-methoxypyridin-3-yl)methyl)-3,6-diazabicyclo[3.1.1]heptan-3-yl)pyridin-3-yl)pyrazolo[1,5-a]pyridine-3-carbonitrile] | 0.0035 µM | 0.743 µM | > 10 µM | 0.0305 µM |  |  |  |  | 
3 | COc1ccc(CN2C3CC2CN(c2ccc(-c4cc(-c5ccc(C6(O)CC6)cn5)cn5ncc(C#N)c45)cn2)C3)cn1 [Example 11, 6-(5-(1-hydroxycyclopropyl)pyridin-2-yl)-4-(6-(6-((6-methoxypyridin-3-yl)methyl)-3,6-diazabicyclo[3.1.1]heptan-3-yl)pyridin-3-yl)pyrazolo[1,5-a]pyridine-3-carbonitrile] | 0.0006 µM | 0.0664 µM | 3.06 µM | 0.0009 µM |  |  |  |  | 
4 | COc1ccc(CN2C3CC2CN(c2ccc(-c4cc(-c5ncc(C(C)(C)O)cn5)cn5ncc(C#N)c45)cn2)C3)cn1 [Example 13, 6-(5-(2-hydroxypropan-2-yl)pyrimidin-2-yl)-4-(6-(6-((6-methoxypyridin-3-yl)methyl)-3,6-diazabicyclo[3.1.1]heptan-3-yl)pyridin-3-yl)pyrazolo[1,5-a]pyridine-3-carbonitrile] | 0.0004 µM | 0.183 µM | 2.67 µM | 0.0022 µM |  |  |  |  | 
5 | CC(C)(O)c1ccc(-c2cc(-c3ccc(N4C5CC6CC4CC(NC(=O)c4ncccc4Cl)(C6)C5)nc3)c3c(C#N)cnn3c2)nc1 [Example 23, 3-chloro-N-((1R,3S,5s,7s)-2-(5-(3-cyano-6-(5-(2-hydroxypropan-2-yl)pyridin-2-yl)pyrazolo[1,5-a]pyridin-4-yl)pyridin-2-yl)-2-azaadamantan-5-yl)picolinamide] | 0.0017 µM |  | 1.14 µM | 0.0005 µM |  |  |  |  | 0.0042 µM
6 | CCC(=O)c1ccc(-c2cc(-c3ccc(N4CC5CC(C4)N5Cc4ccc(OC)nc4)nc3)c3c(C#N)cnn3c2)nc1 [Example 37, 4-(6-(6-((6-methoxypyridin-3-yl)methyl)-3,6-diazabicyclo[3.1.1]heptan-3-yl)pyridin-3-yl)-6-(5-propionylpyridin-2-yl)pyrazolo[1,5-a]pyridine-3-carbonitrile] | 0.0007 µM | 0.138 µM | 4.46 µM | 0.0012 µM |  |  |  |  | 
7 | COc1ccc(CN2C3CC2CN(c2ccc(-c4cc(OCC(C)(C)O)cn5ncc(C#N)c45)cn2)C3)cn1 [Loxo-292, reference compound] |  |  |  |  | 0.0033 µM | 0.0436 µM | 0.624 µM | 0.0469 µM | 
